Experimental data reported in patent EP0366273A1, “Benzopyran derivatives with smooth muscle relaxant activity” (BEECHAM GROUP PLC, priority 1988, dated 1990).

How the values were obtained:
[1] = test system: guinea pig tracheal spiral preparations; assay: Bronchodilation in vitro; guinea pig tracheal spiral preparations; type: cell-based; conditions: relaxation relative to total relaxation evoked by 10⁻³M isoprenaline
Method: (a) Bronchodilation in vitro; guinea pig tracheal spiral preparations.
Male guinea pigs (300-600g) were stunned by a blow to the head and bled from the carotid artery. The trachea was exposed, dissected free of connective tissue, and transferred to oxygenated krebs solution at 37°C. Next, spirals (2 per trachea) were prepared by cutting the whole trachea spirally along its longitudinal axis and then dividing this spiral lengthwise. Each preparation was mounted, using silk thread, in a 10ml organ bath filled with krebs solution at 37°C and bubbled with 5% CO₂ with O₂. The resting tension of the preparations was set at 2g and changes in muscle tension were monitored isometrically by means of a UFI (2oz) force and displacement transducer (Ormed Ltd) connected to a Linseis pen recorder. […] During this equilibration period the preparations were washed by upward displacement at 15 minute intervals and, if necessary, the resting tension was readjusted to 2g using a mechanical micromanipulator system.
Once a steady resting tension had been obtained, the preparations were dosed cumulatively with the test compound (10⁻⁸-2x10⁻⁵M), and finally a maximum relaxation achieved by addition of 10⁻³M isoprenaline. The fall in tension evoked by the test compound was expressed as a percentage of the total relaxation evoked in the presence of 10⁻³M isoprenaline. […]

[2] = test system: Spontaneously hypertensive rats; assay: Blood pressure lowering activity, tail cuff method; type: in vivo; conditions: dose 1 mg/kg, initial blood pressure 265 ± 8 mmHg, 6 rats
Method: Blood Pressure Lowering Activity
Systolic blood pressures were recorded by a modification of the tail cuff method described by I.M. Claxton, M.G. Palfreyman, R.H. Poyser, R.L. Whiting, European Journal of Pharmacology, 37, 179 (1976). A W+W BP recorder, model 8005 was used to display pulses.Prior to all measurements rats were placed in a heated environment (33.5 ± 0.5°C) before transfer to a restraining cage. Each determination of blood pressure was the mean of at least 6 readings. Spontaneously hypertensive rats (ages 12-18 weeks) with systolic blood pressures >180 mmHg were considered hypertensive.

CC1(C)Oc2ccc(C#N)cc2C(N2CCCC2=O)C1=O (centres unmarked) [Example 1, 6-Cyano-3,4-dihydro-2,2 dimethyl-4-(2-oxopyrrolidin-1-yl)-2H-1-benzopyran-3-one]
Intrinsic Activity [1]: 0.89 | % Change in Systolic Blood Pressure ([2]; 1 h post dose): -27 ± 5 (6 rats) % | % Change in Systolic Blood Pressure ([2]; 2 h post dose): -24 ± 1 (6 rats) % | % Change in Systolic Blood Pressure ([2]; 4 h post dose): -19 ± 6 (6 rats) % | % Change in Systolic Blood Pressure ([2]; 6 h post dose): -25 ± 5 (6 rats) %
